Test results: paper PMC10300260 (The Journal of Biological Chemistry, 2023)

How the values were obtained:
[1] = target: T1, TcK2 (T. cruzi eIF2α kinase 2, PERK homologue); experiment: LANCE TR-FRET kinase assay with p70S6K peptide; DSF ΔTm […] °C; knockout parasites less sensitive; assay type: biochemical, Trypanosoma cruzi
T1 construct: gene TcYC6_0089220; kinase domain KD5 (S659-I976)

[2] = target: T1, TcK2 (T. cruzi eIF2α kinase 2, PERK homologue); experiment: LANCE TR-FRET kinase assay with p70S6K peptide; DSF ΔTm […] °C; assay type: biochemical, Trypanosoma cruzi

With Cc1nc(Nc2ncc(C(=O)Nc3c(C)cccc3Cl)s2)cc(N2CCN(CCO)CC2)n1 [Dasatinib] the IC50 [1] was 190 ± 20 nM.
Cn1cc(-c2[nH]c3cc(NC(=O)[C@H](N)C4CCCCC4)cc4c3c2C=NNC4=O)cn1 [PF-477736] gave an IC50 [2] of 670 ± 20 nM.
